#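 In this assay, cells in 96-well plates receive the compound at five concentrations for 48 hours. Endpoints are linearly interpolated between the surrounding concentrations. At the GI50, growth is halved. TGI marks complete inhibition of growth.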
# Key:
# Assay in all cases: inhibition of tumour cell growth, NCI panel, 48 h
# HCT-15 colon = system: HCT-15 colon
# HOP-62 NSCLC = system: HOP-62 NSCLC
# HS 578T breast = system: HS 578T breast
# IGROV1 ovarian = system: IGROV1 ovarian
# K-562 leukemia = system: K-562 leukemia
# M14 melanoma = system: M14 melanoma
# NCI-H522 lung = system: NCI-H522 lung
# OVCAR-5 ovarian = system: OVCAR-5 ovarian
# OVCAR-8 ovarian = system: OVCAR-8 ovarian
# UACC-62 melanoma = system: UACC-62 melanoma
SMILES,GI50 (HCT-15 colon),TGI (HCT-15 colon),GI50 (HOP-62 NSCLC),TGI (HOP-62 NSCLC),GI50 (HS 578T breast),TGI (HS 578T breast),GI50 (IGROV1 ovarian),TGI (IGROV1 ovarian),GI50 (K-562 leukemia),TGI (K-562 leukemia),GI50 (M14 melanoma),TGI (M14 melanoma),GI50 (NCI-H522 lung),TGI (NCI-H522 lung),GI50 (OVCAR-5 ovarian),TGI (OVCAR-5 ovarian),GI50 (OVCAR-8 ovarian),TGI (OVCAR-8 ovarian),GI50 (UACC-62 melanoma),TGI (UACC-62 melanoma)
NCCCCN(Cc1nc2ccccc2[nH]1)[C@H]1CCCc2cccnc21,24.3 µM,> 100 µM,11.4 µM,> 100 µM,19 µM,> 91.4 µM,12.6 µM,> 100 µM,12.6 µM,43.3 µM,13.9 µM,30.2 µM,19.8 µM,> 64.8 µM,11.8 µM,> 100 µM,20 µM,> 100 µM,17.8 µM,47.4 µM
COc1ccc2nc(C)cc(Nc3ccccc3O)c2c1,32.4 µM,> 100 µM,49.3 µM,> 100 µM,31.9 µM,> 100 µM,31.4 µM,> 100 µM,17.8 µM,64.8 µM,17.6 µM,45.8 µM,45.2 µM,> 100 µM,28.9 µM,> 100 µM,24.8 µM,69.7 µM,17.9 µM,39.5 µM
COCCNC(=O)c1ccc(-c2nc3ccc4[nH]ncc4c3c3c2CCCC3)cc1,2.67 µM,> 100 µM,0.969 µM,39.5 µM,0.88 µM,4.68 µM,1.24 µM,10.9 µM,3.86 µM,> 100 µM,1.39 µM,> 100 µM,1.92 µM,12.4 µM,6.05 µM,> 100 µM,2.64 µM,> 100 µM,1.58 µM,13.1 µM
COc1cc(/C=C/C(=O)c2c(C)n([O-])c3ccc(Cl)cc3[n+]2=O)cc(OC)c1OC,> 100 µM,> 100 µM,60.2 µM,> 100 µM,12.4 µM,64.3 µM,35.4 µM,> 100 µM,15.2 µM,> 100 µM,> 100 µM,> 100 µM,> 100 µM,> 100 µM,> 100 µM,> 100 µM,11.8 µM,33.4 µM,> 100 µM,> 100 µM
C/C=C/C=C\C1OC(O)([C@H](CC)C(=O)NC/C=C/C=C(\C)[C@H](OC)C(C)C2OC(\C=C/C=C/C=C(\C)C(=O)c3c(O)ccn(C)c3=O)[C@H](O)[C@@H]2O)C(O)C(O)C1(C)C (stereo not given in full),–,> 100 µM,–,> 100 µM,–,> 100 µM,–,> 100 µM,–,> 100 µM,–,> 100 µM,–,> 100 µM,–,> 100 µM,–,> 100 µM,–,> 100 µM
CSC1C(=O)c2ccccc2/C(=N/Nc2nc3ccccc3s2)C1C (stereo not given),7.58 µM,15.8 µM,14.4 µM,> 50 µM,7.26 µM,27.9 µM,0.648 µM,4.22 µM,1.7 µM,4.55 µM,14.6 µM,33.1 µM,6.95 µM,26.3 µM,14.5 µM,29.6 µM,10.7 µM,28.6 µM,8.67 µM,16.5 µM
OC(CNc1ccnc2cc(Cl)ccc12)CNC1CCCCC1 (stereo not given),3.78 µM,17 µM,12.3 µM,26.3 µM,4.95 µM,23.8 µM,10.1 µM,24.4 µM,2.07 µM,5.17 µM,1.65 µM,3.11 µM,2.72 µM,6.55 µM,12.6 µM,38.4 µM,5.07 µM,19.9 µM,2.15 µM,5.2 µM
O=C(N/N=C\c1ccc(N(CCCl)CCCl)cc1Cl)c1cccnc1,29 µM,> 100 µM,13.6 µM,> 78 µM,31.7 µM,> 94 µM,1.5 µM,24.5 µM,7.38 µM,> 100 µM,26.5 µM,> 83.7 µM,21.4 µM,86 µM,0.981 µM,11.3 µM,21.7 µM,> 88.8 µM,0.513 µM,3.92 µM
CCOC1C=CCCO1 (stereo not given),–,> 100 µM,–,> 100 µM,–,> 100 µM,–,> 100 µM,–,> 100 µM,–,> 100 µM,–,> 100 µM,–,> 100 µM,–,> 100 µM,–,> 100 µM
COC(=O)c1cc2oc(/C=C3\SC(=S)N(NC(C)=O)C3=O)cc2n1Cc1ccccc1,1.54 µM,8.56 µM,9.72 µM,20.7 µM,6.61 µM,> 50 µM,7.31 µM,> 50 µM,1.08 µM,> 50 µM,8.04 µM,16.4 µM,> 50 µM,> 50 µM,7.36 µM,19.1 µM,2.68 µM,19.4 µM,8.91 µM,16.6 µM
